{"source": "patent US9988644B2", "about": "“Compounds for improved viral transduction” (bluebird bio, Inc., priority 2011, dated 2018)", "key": {"CD34+ cells [1]": {"tested_on": "CD34+ cells", "assay": "FACS staining for ALD after transduction with ALD (ABCD1)-expressing lentivirus in presence of dmPGE2", "assay_type": "cell-based, human", "conditions": "ABCD1 MOI 25", "procedure": "One vial of CD34+ cells (AllCells) were thawed by incubating at 37° C. for 1-2 minutes and contents were transferred to 10 mL Stem Cell Growth Media (hereafter referred to as SCGM) in a 15-mL conical tube. Cells were spun for 5 minutes at 1500 RPM in a standard tabletop centrifuge, resuspended in 10 mL SCGM and counted on a hemacytometer. A volume correlating with an appropriate number of cells was transferred to a fresh 15-mL conical tube, and again spun for 5 minutes at 1500 RPM. Cells were resuspended to the desired cell concentration in SCGM+1× cytokines (100 ng/mL SCF, 100 ng/mL TPO, 100 ng/mL FltL, and 30 ng/mL IL-3), and plated on a sterile non-adherent surface at 37° C. in a standard humidified tissue culture incubator (5% CO2).\nPre-stimulated cells (Example 1) were counted after 18-24 hours of culture. The cells were collected and spun for 5 minutes at 1500 RPM. 1.2×10^6 pre-stimulated CD34^+ cells were resuspended in 60 uL 10× cytokines (1000 ng/mL SCF, 1000 ng/mL TPO, 1000 ng/mL FltL, and 300 ng/mL IL-3), 7.8 uL protamine sulfate, 111 uL viral supernatant, and 361.2 uL SCGM. 90 uL cell/virus suspension (about 200,000 cells) was added to each well of a standard non-adherent 96-well plate. dmPGE2 was added during this viral transduction step at a final concentration of 100 uM, 50 uM, 25 uM, 12.5 uM, 1 uM, or 0 uM.\nAliquots of 10 mM dmPGE2 in DMSO were prepared from 1 mg previously processed dmPGE2 (Cayman Chemicals). Briefly, air was pipetted into the vial of dmPGE2 until methyl acetate was evaporated. 263 uL DMSO was added to the PGE2 remaining in the vial, and aliquots of 25 uL were added to 1.5 mL Eppendorf tubes and stored at −80° C. 10× working stock solutions were prepared by serial dilution of dmPGE2 in SCGM, and were then added to cells at appropriate working concentrations, according to Table 2. Cells were then incubated at 37° C. in a standard humidified tissue culture incubator (5% CO2).\nAfter 24 hours of culture with virus and dmPGE2, cells were washed prior to subsequent functional validation assays. Washing was performed by transferring cells to a 96-well U-bottom plate and spinning for 5 minutes at 1500 RPM in a standard tabletop centrifuge. Media was aspirated and cells were resuspended in 200 uL SCGM. Cells were spun again for 5 minutes at 1500 RPM and media was aspirated. Cells were again resuspended in 200 uL SCGM then spun for 5 minutes at 1500 RPM, and again the media was aspirated. Particular functional validation assays are described below.\nWashed cells were resuspended in 200 uL SCGM+1× cytokines (as described in Example 1) and transferred to a standard 12-well non-adherent tissue culture plate containing an additional 800 uL SCGM+1× cytokines Cells were maintained for an additional 6 days in a standard humidified tissue culture incubator (5% CO2) and then subjected Vector Copy Number analysis (Example 5) and FACS analysis. For FACS analysis, cells were assayed for the presence of a virally-encoded transgene, green fluorescent protein (GFP). The frequency of the virally-labeled cells within the pool of cultured cells was quantified as the frequency of GFP+ cells within the population. The mean fluorescence intensity of labeled cells was quantified.\nTables 3A-C indicate the dose-response of dmPGE2 in promoting viral transduction of CD34+ cells for three separate experiments. […] Cells were then washed and analyzed by flow cytometry and PCR after approximately 1 week in culture. […]"}, "CD34+ cells [2]": {"tested_on": "CD34+ cells", "assay": "Time-course and dose-response of dmPGE2 in promoting viral transduction (GFP+ lentivirus, flow cytometry)", "assay_type": "cell-based, human", "conditions": "GFP+ lentivirus MOI 25; for percentage of cells positive for GFP, Pre-Stim w/PGE2 Minus 2 Hr: 22-24 hours of culture; for percentage of cells positive for GFP, Pre-Stim w/PGE2 Minus 1 Hr: 23-24 hours of culture; for percentage of cells positive for GFP, Virus and PGE2 Plus 1 Hr: 24-25 hours of culture; for percentage of cells positive for GFP, Virus and PGE2 Plus 2 Hr: 24-26 hours of culture; for percentage of cells positive for GFP, Virus and PGE2 Plus 4 Hr: 24-28 hours of culture; for percentage of cells positive for GFP, Virus and PGE2 24 Hr: 24-48 hours of culture", "procedure": "MCD-34+ cells were thawed and pre-stimulated with SCF, TPO, FltL and IL3, then transduced with GFP+ lentivirus at a multiplicity of infection of 25. Cells were exposed to dmPGE2 during the viral transduction step (24-25 hours of culture; 24-26 hours of culture; 24-28 hours of culture; or 24-48 hours of culture) and then washed and analyzed by flow cytometry after approximately 1 week in culture. Alternatively, cells were exposed to dmPGE2 during the pre-stimulation step (22-24 hours of culture; 23-24 hours of culture)."}, "[3]": {"conditions": "dmPGE2 1 uM during pre-stimulation"}, "[4]": {"conditions": "dmPGE2 12.5 uM during pre-stimulation"}, "[5]": {"conditions": "dmPGE2 25 uM during pre-stimulation"}, "[6]": {"conditions": "dmPGE2 50 uM during pre-stimulation"}, "[7]": {"conditions": "dmPGE2 100 uM during pre-stimulation"}}}
{"compound": "CCCCC(C)(C)[C@H](O)/C=C/[C@H]1[C@H](O)CC(=O)[C@@H]1C/C=C\\CCCC(=O)O", "note": "[dmPGE2, 16,16-dimethyl PGE2]", "values": [{"measurement": "% Positive (ALD via FACS staining)", "setting": "CD34+ cells [1]; dmPGE2 1 uM during transduction (24-48 hours of culture)", "result": 34.13, "unit": "%"}, {"measurement": "% Positive (ALD via FACS staining)", "setting": "CD34+ cells [1]; dmPGE2 12.5 uM during transduction (24-48 hours of culture)", "result": 45.36, "unit": "%"}, {"measurement": "% Positive (ALD via FACS staining)", "setting": "CD34+ cells [1]; dmPGE2 25 uM during transduction (24-48 hours of culture)", "result": 43.76, "unit": "%"}, {"measurement": "% Positive (ALD via FACS staining)", "setting": "CD34+ cells [1]; dmPGE2 50 uM during transduction (24-48 hours of culture)", "result": 56.10, "unit": "%"}, {"measurement": "% Positive (ALD via FACS staining)", "setting": "CD34+ cells [1]; dmPGE2 100 uM during transduction (24-48 hours of culture)", "result": 72.26, "unit": "%"}, {"measurement": "percentage of cells positive for GFP, Pre-Stim w/PGE2 Minus 2 Hr", "setting": "CD34+ cells [2]; [3]", "result": 25.74, "unit": "%"}, {"measurement": "percentage of cells positive for GFP, Pre-Stim w/PGE2 Minus 1 Hr", "setting": "CD34+ cells [2]; [3]", "result": 22.29, "unit": "%"}, {"measurement": "percentage of cells positive for GFP, Virus and PGE2 Plus 1 Hr", "setting": "CD34+ cells [2]; dmPGE2 1 uM", "result": 2.94, "unit": "%"}, {"measurement": "percentage of cells positive for GFP, Virus and PGE2 Plus 2 Hr", "setting": "CD34+ cells [2]; dmPGE2 1 uM", "result": 7.17, "unit": "%"}, {"measurement": "percentage of cells positive for GFP, Virus and PGE2 Plus 4 Hr", "setting": "CD34+ cells [2]; dmPGE2 1 uM", "result": 21.10, "unit": "%"}, {"measurement": "percentage of cells positive for GFP, Virus and PGE2 24 Hr", "setting": "CD34+ cells [2]; dmPGE2 1 uM", "result": 32.03, "unit": "%"}, {"measurement": "percentage of cells positive for GFP, Pre-Stim w/PGE2 Minus 2 Hr", "setting": "CD34+ cells [2]; [4]", "result": 30.64, "unit": "%"}, {"measurement": "percentage of cells positive for GFP, Pre-Stim w/PGE2 Minus 1 Hr", "setting": "CD34+ cells [2]; [4]", "result": 22.13, "unit": "%"}, {"measurement": "percentage of cells positive for GFP, Virus and PGE2 Plus 1 Hr", "setting": "CD34+ cells [2]; dmPGE2 12.5 uM", "result": 1.97, "unit": "%"}, {"measurement": "percentage of cells positive for GFP, Virus and PGE2 Plus 2 Hr", "setting": "CD34+ cells [2]; dmPGE2 12.5 uM", "result": 5.32, "unit": "%"}, {"measurement": "percentage of cells positive for GFP, Virus and PGE2 Plus 4 Hr", "setting": "CD34+ cells [2]; dmPGE2 12.5 uM", "result": 28.08, "unit": "%"}, {"measurement": "percentage of cells positive for GFP, Virus and PGE2 24 Hr", "setting": "CD34+ cells [2]; dmPGE2 12.5 uM", "result": 47.42, "unit": "%"}, {"measurement": "percentage of cells positive for GFP, Pre-Stim w/PGE2 Minus 2 Hr", "setting": "CD34+ cells [2]; [5]", "result": 31.90, "unit": "%"}, {"measurement": "percentage of cells positive for GFP, Pre-Stim w/PGE2 Minus 1 Hr", "setting": "CD34+ cells [2]; [5]", "result": 24.05, "unit": "%"}, {"measurement": "percentage of cells positive for GFP, Virus and PGE2 Plus 1 Hr", "setting": "CD34+ cells [2]; dmPGE2 25 uM", "result": 1.76, "unit": "%"}, {"measurement": "percentage of cells positive for GFP, Virus and PGE2 Plus 2 Hr", "setting": "CD34+ cells [2]; dmPGE2 25 uM", "result": 4.76, "unit": "%"}, {"measurement": "percentage of cells positive for GFP, Virus and PGE2 Plus 4 Hr", "setting": "CD34+ cells [2]; dmPGE2 25 uM", "result": 27.46, "unit": "%"}, {"measurement": "percentage of cells positive for GFP, Virus and PGE2 24 Hr", "setting": "CD34+ cells [2]; dmPGE2 25 uM", "result": 50.69, "unit": "%"}, {"measurement": "percentage of cells positive for GFP, Pre-Stim w/PGE2 Minus 2 Hr", "setting": "CD34+ cells [2]; [6]", "result": 31.85, "unit": "%"}, {"measurement": "percentage of cells positive for GFP, Pre-Stim w/PGE2 Minus 1 Hr", "setting": "CD34+ cells [2]; [6]", "result": 22.98, "unit": "%"}, {"measurement": "percentage of cells positive for GFP, Virus and PGE2 Plus 1 Hr", "setting": "CD34+ cells [2]; dmPGE2 50 uM", "result": 1.85, "unit": "%"}, {"measurement": "percentage of cells positive for GFP, Virus and PGE2 Plus 2 Hr", "setting": "CD34+ cells [2]; dmPGE2 50 uM", "result": 4.23, "unit": "%"}, {"measurement": "percentage of cells positive for GFP, Virus and PGE2 Plus 4 Hr", "setting": "CD34+ cells [2]; dmPGE2 50 uM", "result": 27.45, "unit": "%"}, {"measurement": "percentage of cells positive for GFP, Virus and PGE2 24 Hr", "setting": "CD34+ cells [2]; dmPGE2 50 uM", "result": 54.63, "unit": "%"}, {"measurement": "percentage of cells positive for GFP, Pre-Stim w/PGE2 Minus 2 Hr", "setting": "CD34+ cells [2]; [7]", "result": 34.85, "unit": "%"}, {"measurement": "percentage of cells positive for GFP, Pre-Stim w/PGE2 Minus 1 Hr", "setting": "CD34+ cells [2]; [7]", "result": 25.14, "unit": "%"}, {"measurement": "percentage of cells positive for GFP, Virus and PGE2 Plus 1 Hr", "setting": "CD34+ cells [2]; dmPGE2 100 uM", "result": 2.48, "unit": "%"}, {"measurement": "percentage of cells positive for GFP, Virus and PGE2 Plus 2 Hr", "setting": "CD34+ cells [2]; dmPGE2 100 uM", "result": 4.02, "unit": "%"}, {"measurement": "percentage of cells positive for GFP, Virus and PGE2 Plus 4 Hr", "setting": "CD34+ cells [2]; dmPGE2 100 uM", "result": 21.57, "unit": "%"}, {"measurement": "percentage of cells positive for GFP, Virus and PGE2 24 Hr", "setting": "CD34+ cells [2]; dmPGE2 100 uM", "result": 76.44, "unit": "%"}]}
